Here are results for 12 compounds from ChEMBL document CHEMBL1201862, “PubChem BioAssay data set” (2004).

Some test systems named below: HOP-62; NCI-H23; ACHN; OVCAR-3; LOX IMVI; KM12; HT-29; OVCAR-5; RXF 393; SK-MEL-2; HCC 2998; SR; SN12C; K562; Malme-3M; CCRF-CEM; HCT-15; PC-3; NCI-H460; NCI/ADR-RES.
Experiment in all cases: DTP human tumour cell line panel, 48 h

The structures appear in SMILES notation.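 Dose response: 5 concentrations. Exposure: 48 h. Format: 96-well plates. Endpoint: linear interpolation; highest concentration if not reached. Abbreviation: GI50, concentration required for 50% inhibition of growth.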 Activity calls are given as the source filed them. Rule as the data show it: active = GI50 up to about 1.1 µM and inactive = higher. Where only a bound is given, the exact number is not on record here.

A word on the GI50: it is the concentration that inhibits growth by half. `N#CC1(Cc2ccccc2Cl)c2ccccc2C=CN1C(=O)c1ccccc1` (stereo not given): the GI50 in the assay on HOP-62 is > 100 µM (inactive); in the assay with NCI-H23 it was 28.2 µM (inactive); with ACHN it was 90.8 µM (inactive); in the assay with OVCAR-3, > 100 µM (inactive); in the assay on LOX IMVI, > 100 µM (inactive); with KM12 it was > 100 µM (inactive). Moreover, the GI50 is 75.5 µM (inactive) in the assay with HT-29; > 100 µM (inactive) with OVCAR-5; 23.2 µM (inactive) in the assay with RXF 393; > 100 µM (inactive) in the assay with SK-MEL-2; > 100 µM (inactive) with HCC 2998; 45.5 µM (inactive) with SR. Besides, the GI50 was 77.8 µM (inactive) in the assay on SN12C; 25.1 µM (inactive) in the assay on K562; 34.1 µM (inactive) with Malme-3M; 57.4 µM (inactive) with CCRF-CEM; 98.6 µM in the assay with HCT-15.
For `CC(=O)OCCOCn1c2c(c(=S)[nH]c1=O)CCC2`, the GI50 in the assay on HOP-62, in the assay with NCI-H23, in the assay on ACHN, with OVCAR-3, in the assay with LOX IMVI and in the assay on KM12 was > 100 µM (inactive) each time. For the same compound, the GI50 in the assay with HT-29, with OVCAR-5, in the assay with RXF 393, with SK-MEL-2, in the assay on HCC 2998 and with SR was > 100 µM (inactive) each time. Moreover, the GI50 with SN12C is > 100 µM (inactive); in the assay with PC-3, > 100 µM (inactive); in the assay with K562, > 100 µM (inactive); with Malme-3M, > 100 µM (inactive); in the assay with CCRF-CEM it was > 100 µM (inactive); in the assay on HCT-15, above 100 µM.
In the case of `FC(F)(F)C1(Cl)C(c2ccccc2)=C1c1ccccc1`, the GI50 in the assay with HOP-62 was 18.3 µM (inactive); in the assay with NCI-H460 it was 16 µM (inactive); with NCI-H23, 15.7 µM (inactive); in the assay with ACHN, 16.6 µM (inactive); in the assay with OVCAR-3 it was 17.2 µM (inactive); in the assay on LOX IMVI it was 11.5 µM (inactive). The GI50 with KM12 was 15.6 µM (inactive); with HT-29, 15.8 µM (inactive); in the assay with OVCAR-5, 17.4 µM (inactive); in the assay on RXF 393 it was 13.3 µM (inactive); in the assay with SK-MEL-2, 15 µM (inactive); with HCC 2998 it was 17.7 µM (inactive). Besides, the GI50 in the assay on SR is 22.3 µM (inactive); with SN12C, 15.6 µM (inactive); in the assay on K562, 12.2 µM (inactive); with Malme-3M, 15.1 µM (inactive); in the assay on CCRF-CEM, 2.49 µM (inactive); in the assay on HCT-15, 14.3 µM.
For the compound `COC(=O)C1C(OCc2ccccc2)C2CCC1(OC)C=C2C` (stereo not given), the GI50 in the assay on HOP-62 was > 100 µM (inactive); in the assay on NCI-H460, > 100 µM (inactive); with NCI-H23 it was > 88.5 µM (inactive); in the assay on ACHN it was > 61.8 µM (inactive); with OVCAR-3 it was > 51.6 µM (inactive); with LOX IMVI, > 68.7 µM (inactive). Besides, the GI50 in the assay with KM12 was > 100 µM (inactive); in the assay with HT-29, > 100 µM (inactive); in the assay with OVCAR-5 it was > 100 µM (inactive); in the assay on RXF 393, 54.3 µM (inactive); in the assay on SK-MEL-2 it was > 50.8 µM (inactive); in the assay with HCC 2998, 62.5 µM (inactive). Further, the GI50 is 17.8 µM (inactive) with SR; > 100 µM (inactive) in the assay with SN12C; 41.1 µM (inactive) in the assay with K562; > 100 µM (inactive) in the assay with Malme-3M; 26.9 µM (inactive) in the assay with CCRF-CEM; above 89.3 µM in the assay with HCT-15.
On to `O=C1C=Cc2c(I)sc(I)c21`, for which the GI50 in the assay on HOP-62 was 38.6 µM (inactive); with NCI-H460, > 100 µM (inactive); with NCI-H23 it was 18.9 µM (inactive); with ACHN it was 36.6 µM (inactive); with OVCAR-3, 19.3 µM (inactive); with LOX IMVI, 12.1 µM (inactive). The GI50 is 20 µM (inactive) with KM12; 23.9 µM (inactive) in the assay with HT-29; 25.1 µM (inactive) in the assay with OVCAR-5; 20.6 µM (inactive) with RXF 393; 20.1 µM (inactive) with SK-MEL-2; 18.4 µM (inactive) in the assay on HCC 2998. Besides, the GI50 in the assay on SR was 4 µM (inactive); in the assay with SN12C, 19.5 µM (inactive); in the assay with NCI/ADR-RES, 23.3 µM (inactive); in the assay on K562, 14.3 µM (inactive); in the assay on Malme-3M it was 14.5 µM (inactive); in the assay with CCRF-CEM it was 2.88 µM (inactive). In the assay with HCT-15, this compound had a GI50 of 17.3 µM.
Take `c1ccc2c(c1)cc(C1NCCc3nc[nH]c31)c1ccccc12` (stereo not given): the GI50 is 32.4 µM (inactive) in the assay on HOP-62; 22.6 µM (inactive) with NCI-H460; > 100 µM (inactive) in the assay on NCI-H23; 23.2 µM (inactive) in the assay with ACHN; > 61.9 µM (inactive) with OVCAR-3; 19.8 µM (inactive) in the assay on LOX IMVI. Further, the GI50 is 47.6 µM (inactive) with KM12; 44.4 µM (inactive) with HT-29; > 74.3 µM (inactive) in the assay on OVCAR-5; 31.7 µM (inactive) in the assay with RXF 393; 18.4 µM (inactive) in the assay on SK-MEL-2; 15.7 µM (inactive) with HCC 2998. Besides, the GI50 in the assay on SR was 34.3 µM (inactive); in the assay on SN12C it was 56 µM (inactive); in the assay with K562, 15.2 µM (inactive); with Malme-3M, 30.6 µM (inactive); in the assay with CCRF-CEM, 27.2 µM (inactive); with HCT-15, 59.6 µM.
With `C#CCOCn1cnc2ncnc(N)c21`, the GI50 in the assay with HOP-62, in the assay on NCI-H460, in the assay on NCI-H23, in the assay on ACHN, in the assay on OVCAR-3 and with LOX IMVI was > 100 µM (inactive) each time. For the same compound, the GI50 in the assay on KM12, with HT-29, with OVCAR-5, in the assay with RXF 393, with SK-MEL-2 and with HCC 2998 was > 100 µM (inactive) in each case. Also, the GI50 with SR, with SN12C, in the assay with K562, in the assay on Malme-3M and in the assay with CCRF-CEM was > 100 µM (inactive) each time.
As to `CSc1ccc(/C=C2\CNC/C(=C\c3ccc(SC)cc3)C2=O)cc1`, the GI50 is 84.5 µM (inactive) in the assay with HOP-62; > 119 µM (inactive) in the assay with NCI-H460; 120 µM (inactive) in the assay on ACHN; 36.8 µM (inactive) in the assay with OVCAR-3; > 284 µM (inactive) in the assay with OVCAR-5; 25.9 µM (inactive) in the assay on RXF 393. For the same compound, the GI50 in the assay with SK-MEL-2 was > 194 µM (inactive); with SN12C, > 139 µM (inactive); in the assay on PC-3 it was > 100 µM (inactive); with K562, > 371 µM (inactive); with Malme-3M, > 199 µM (inactive); in the assay on HCT-15, above 179 µM.
`CC(=O)OC1(C#N)CC2OC1C1N=NN(C(=O)OC(C)(C)C)C21` (stereo not given): the GI50 is > 100 µM (inactive) in the assay on HOP-62; > 100 µM (inactive) in the assay with NCI-H460; > 10 µM (inactive) with NCI-H23; > 100 µM (inactive) in the assay with ACHN; 43.1 µM (inactive) in the assay on OVCAR-3; 17.2 µM (inactive) in the assay with LOX IMVI. In addition, the GI50 was > 100 µM (inactive) in the assay on HT-29; > 100 µM (inactive) with OVCAR-5; > 31.6 µM (inactive) with RXF 393; 11.2 µM (inactive) in the assay with SK-MEL-2; > 100 µM (inactive) with HCC 2998; 15 µM (inactive) with SR. Moreover, the GI50 was 39.7 µM (inactive) in the assay with SN12C; 29.9 µM (inactive) with K562; 34.7 µM (inactive) in the assay on Malme-3M; 15.1 µM (inactive) in the assay on CCRF-CEM; 13.8 µM in the assay with HCT-15.
Turning to `C=CC[P@]1(=O)O[C@H](c2ccccc2)[C@H](C)N1C`, the GI50 with NCI-H460, with NCI-H23, in the assay with ACHN, with OVCAR-3, in the assay on LOX IMVI and in the assay with KM12 was > 100 µM (inactive) throughout. Further, the GI50 in the assay on HT-29, in the assay with OVCAR-5, in the assay on RXF 393, with HCC 2998, in the assay with SR and in the assay with SN12C was > 100 µM (inactive) in each case. The GI50 was > 100 µM (inactive) in the assay with K562, > 100 µM (inactive) with Malme-3M, > 100 µM (inactive) with CCRF-CEM and above 100 µM with HCT-15.
Turning to `COC(=O)N/N=C(\C)C(CN(C)C)C(c1ccccc1)c1c(O)c2ccccc2oc1=O` (stereo not given), the GI50 in the assay with HOP-62, in the assay on NCI-H23, in the assay on ACHN, in the assay with LOX IMVI, with KM12 and in the assay on HT-29 was > 100 µM (inactive) in each case. Besides, the GI50 with OVCAR-5, in the assay with RXF 393, in the assay with SK-MEL-2, with HCC 2998, with SR and in the assay with SN12C was > 100 µM (inactive) each time. Further, the GI50 in the assay on K562 is > 100 µM (inactive); in the assay with Malme-3M, > 100 µM (inactive); in the assay on CCRF-CEM, > 100 µM (inactive); in the assay on HCT-15, above 100 µM.
As for `O=C1C=CC(=O)c2c1ccc1c3ccccc3n(-c3ccccc3)c21`, the GI50 in the assay on HOP-62 was 11 µM (inactive); with NCI-H460 it was 17.9 µM (inactive); in the assay with NCI-H23, 15.4 µM (inactive); with ACHN it was 3.26 µM (inactive); with OVCAR-3 it was 8.83 µM (inactive); in the assay with LOX IMVI, 7.1 µM (inactive). Further, the GI50 with KM12 is 17.9 µM (inactive); with HT-29 it was 15.8 µM (inactive); in the assay with OVCAR-5, 17.1 µM (inactive); with RXF 393 it was 1.71 µM (inactive); in the assay with SK-MEL-2, 13.1 µM (inactive); with HCC 2998, 24.9 µM (inactive). For the same compound, the GI50 in the assay on SR is 0.271 µM (active); in the assay on SN12C, 11.5 µM (inactive); with PC-3, 13.6 µM (inactive); in the assay with K562, 0.986 µM (active); in the assay with Malme-3M, 4.47 µM (inactive); in the assay on CCRF-CEM it was 0.304 µM (active). In the assay with HCT-15, the 50% growth inhibitory concentration (GI50) was 3.48 µM.
